Legend:
Assay type in all cases: in vivo
[1] = tested on: Surinam grass (Brachiaria decumbens); experiment: Test B postemergence; details: 13 to 15 days
Procedure, shortened: (§1)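 Visual injury scores, 0 = no effect to 100 = complete control, assigned against controls after 13 to 15 days in the greenhouse. Compounds formulated in non-phytotoxic solvent plus surfactant and applied to soil after planting (pre) or onto foliage of 1- to 4-leaf plants (post).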

[2] = tested on: barnyardgrass (Echinochloa crus-galli); experiment: Test B postemergence; details: 13 to 15 days
Procedure, shortened: as §1

[3] = tested on: blackgrass (Alopecurus myosuroides); experiment: Test B postemergence; details: 13 to 15 days
Procedure, shortened: as §1

[4] = tested on: cocklebur (Xanthium strumarium); experiment: Test B postemergence; details: 13 to 15 days
Procedure, shortened: as §1

corn (Zea mays) [5] = experiment: Test B postemergence; details: 13 to 15 days
Procedure, shortened: as §1

[6] = tested on: crabgrass (Digitaria sanguinalis); experiment: Test B postemergence; details: 13 to 15 days
Procedure, shortened: as §1

[7] = tested on: giant foxtail (Setaria faberii); experiment: Test B postemergence; details: 13 to 15 days
Procedure, shortened: as §1

[8] = tested on: lambsquarters (Chenopodium album); experiment: Test B postemergence; details: 13 to 15 days
Procedure, shortened: as §1

[9] = tested on: morning glory (Ipomoea hederacea); experiment: Test B postemergence; details: 13 to 15 days
Procedure, shortened: as §1

[10] = tested on: pigweed (Amaranthus retroflexus); experiment: Test B postemergence; details: 13 to 15 days
Procedure, shortened: as §1

[11] = tested on: velvetleaf (Abutilon theophrasti); experiment: Test B postemergence; details: 13 to 15 days
Procedure, shortened: as §1

[12] = tested on: wheat (Triticum aestivum); experiment: Test B postemergence; details: 13 to 15 days
Procedure, shortened: as §1

wild oat (Avena fatua) = experiment: Test B postemergence; details: 13 to 15 days
Procedure, shortened: as §1

[13] = tested on: Surinam grass (Brachiaria decumbens); experiment: Test B preemergence
Procedure, shortened: as §1

[14] = tested on: barnyardgrass (Echinochloa crus-galli); experiment: Test B preemergence
Procedure, shortened: as §1

[15] = tested on: cocklebur (Xanthium strumarium); experiment: Test B preemergence
Procedure, shortened: as §1

corn (Zea mays) [16] = experiment: Test B preemergence
Procedure, shortened: as §1

[17] = tested on: crabgrass (Digitaria sanguinalis); experiment: Test B preemergence
Procedure, shortened: as §1

[18] = tested on: giant foxtail (Setaria faberii); experiment: Test B preemergence
Procedure, shortened: as §1

[19] = tested on: lambsquarters (Chenopodium album); experiment: Test B preemergence
Procedure, shortened: as §1

[20] = tested on: morning glory (Ipomoea hederacea); experiment: Test B preemergence
Procedure, shortened: as §1

[21] = tested on: pigweed (Amaranthus retroflexus); experiment: Test B preemergence
Procedure, shortened: as §1

rice (Oryza saliva) [22] = experiment: Test B preemergence
Procedure, shortened: as §1

[23] = tested on: velvetleaf (Abutilon theophrasti); experiment: Test B preemergence
Procedure, shortened: as §1

[24] = tested on: barnyardgrass (Echinochloa crus-galli); experiment: Test B flooded paddy test; details: Rate 1000 g/ha, scale of 0 to 100 where 0 is no effect and 100 is complete control, visually evaluated after 13 to 15 days
Protocol: (§2) At the same time, plants selected from these crop and weed species and also blackgrass (Alopecurus myosuroides), wheat (Triticum aestivum) and wild oat (Avena fatua) were treated with postemergence applications of test chemicals formulated in the same manner. Plants ranged in height from 2 to 18 cm (1- to 4-leaf stage) for postemergence treatments. Plant species in the flooded paddy test consisted of rice (Oryza saliva), smallflower flatsedge (Cyperus difformis), duck salad (Heteranthera limosa) and barnyardgrass (Echinochloa crus-galli) grown to the 2-leaf stage for testing. Treated plants and controls were maintained in a greenhouse for 13 to 15 days, after which time all species were compared to controls and visually evaluated. Plant response ratings, summarized in Table B, are based on a scale of 0 to 100 where 0 is no effect and 100 is complete control. A dash (-) response means no test result.

[25] = tested on: duck salad (Heteranthera limosa); experiment: Test B flooded paddy test; details: Rate 1000 g/ha, scale of 0 to 100 where 0 is no effect and 100 is complete control, visually evaluated after 13 to 15 days
Protocol: as §2

rice (Oryza saliva) [26] = experiment: Test B flooded paddy test; details: Rate 1000 g/ha, scale of 0 to 100 where 0 is no effect and 100 is complete control, visually evaluated after 13 to 15 days
Protocol: as §2

[27] = tested on: barnyardgrass (Echinochloa crus-galli); experiment: Test C flooded paddy test; details: for Barnyardgrass plant response rating: Flooded Paddy, scale 0 to 100, 0 no effect, 100 complete control; for Plant response rating, Barnyardgrass: flooded paddy test, scale 0 to 100 (0 no effect, 100 complete control)
Procedure, shortened: (§3)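 Visual injury score, 0 (no effect) to 100 (complete control), relative to controls. Paddy plants treated at 2-leaf stage; greenhouse hold 12–14 d before rating.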

[28] = tested on: duck salad (Heteranthera limosa); experiment: Test C flooded paddy test; details: for Ducksalad plant response rating: Flooded Paddy, scale 0 to 100, 0 no effect, 100 complete control; for Plant response rating, Ducksalad: flooded paddy test, scale 0 to 100 (0 no effect, 100 complete control)
Procedure, shortened: as §3

rice (Oryza saliva) [29] = experiment: Test C flooded paddy test; details: for Rice plant response rating: Flooded Paddy, scale 0 to 100, 0 no effect, 100 complete control; for Plant response rating, Rice: flooded paddy test, scale 0 to 100 (0 no effect, 100 complete control)
Procedure, shortened: as §3

[30] = tested on: smallflower flatsedge (Cyperus difformis); experiment: Test C flooded paddy test; details: for Flatsedge plant response rating: Flooded Paddy, scale 0 to 100, 0 no effect, 100 complete control; for Plant response rating, Flatsedge: flooded paddy test, scale 0 to 100 (0 no effect, 100 complete control)
Procedure, shortened: as §3

[31] = tested on: smallflower flatsedge (Cyperus difformis); experiment: Test B flooded paddy test; details: Rate 1000 g/ha, scale of 0 to 100 where 0 is no effect and 100 is complete control, visually evaluated after 13 to 15 days
Protocol: as §2

[32] = Rate 125 g/ha, scale 0 (no effect) to 100 (complete control)
[33] = Rate 500 g/ha, scale 0 to 100, 0 is no effect, 100 is complete control
[34] = Preemergence, Rate 500 g/ha, scale 0 to 100, 0 no effect, 100 complete control
[35] = preemergence, Rate 125 g/ha, scale of 0 to 100 where 0 is no effect and 100 is complete control, 13 to 15 days

CC(C)(C)c1ccn(C2CCN(c3ccc(F)c(Cl)c3)C2=O)n1 (centres unmarked) [Compound 46]
20: Plant response rating, Barnyardgrass ([27]; Rate 125 g/ha) | Ducksalad plant response rating ([28]; Rate 250 g/ha)
90: Plant response rating, Rice (rice (Oryza saliva) [26]) | Flatsedge plant response rating ([30]; Rate 250 g/ha) | Plant response rating, Flatsedge ([30]; Rate 125 g/ha)
100: Plant response rating, Lambsquarters [19, 34] | Plant response rating, Lambsquarters [19, 35] | Plant response rating, Pigweed [21, 34] | Plant response rating, Pigweed [21, 35] | Plant response rating, Barnyardgrass [24] | Flatsedge plant response rating ([30]; Rate 500 g/ha)
70: Plant response rating, Lambsquarters [8, 33] | Plant response rating, Ducksalad [25]
60: Barnyardgrass plant response rating ([27]; Rate 500 g/ha)
40: Rice plant response rating (rice (Oryza saliva) [29]; Rate 500 g/ha)
0: Plant response rating, Surinam grass [1, 32] | Plant response rating, Surinam grass [1, 33] | Plant response rating, Barnyardgrass [2, 32] | Plant response rating, Barnyardgrass [2, 33] | Plant response rating, Blackgrass [3, 32] | Plant response rating, Blackgrass [3, 33] | Plant response rating, Cocklebur [4, 32] | Plant response rating, Cocklebur [4, 33] | Plant response rating, Corn (corn (Zea mays) [5]; [32]) | Plant response rating, Corn (corn (Zea mays) [5]; [33]) | Plant response rating, Crabgrass [6, 32] | Plant response rating, Crabgrass [6, 33] | Plant response rating, Foxtail, Giant [7, 32] | Plant response rating, Foxtail, Giant [7, 33] | Plant response rating, Lambsquarters [8, 32] | Plant response rating, Morningglory [9, 32] | Plant response rating, Morningglory [9, 33] | Plant response rating, Pigweed [10, 32] | Plant response rating, Pigweed [10, 33] | Plant response rating, Velvetleaf [11, 32] | Plant response rating, Velvetleaf [11, 33] | Plant response rating, Wheat [12, 32] | Plant response rating, Wheat [12, 33] | Plant response rating, Wild Oat (wild oat (Avena fatua); [32]) | Plant response rating, Wild Oat (wild oat (Avena fatua); [33]) | Plant response rating, Surinam grass [13, 34] | Plant response rating, Surinam grass [13, 35] | Plant response rating, Barnyardgrass [14, 35] | Plant response rating, Cocklebur [15, 34] | Plant response rating, Cocklebur [15, 35] | Plant response rating, Corn (corn (Zea mays) [16]; [34]) | Plant response rating, Corn (corn (Zea mays) [16]; [35]) | Plant response rating, Crabgrass [17, 34] | Plant response rating, Crabgrass [17, 35] | Plant response rating, Foxtail, Giant [18, 34] | Plant response rating, Foxtail, Giant [18, 35] | Plant response rating, Morningglory [20, 35] | Plant response rating, Rice (rice (Oryza saliva) [22]; [34]) | Plant response rating, Rice (rice (Oryza saliva) [22]; [35]) | Plant response rating, Velvetleaf [23, 34] | Plant response rating, Velvetleaf [23, 35] | Plant response rating, Barnyardgrass ([27]; Rate 62 g/ha) | Plant response rating, Ducksalad ([28]; Rate 62 g/ha) | Plant response rating, Ducksalad ([28]; Rate 125 g/ha) | Rice plant response rating (rice (Oryza saliva) [29]; Rate 250 g/ha) | Plant response rating, Rice (rice (Oryza saliva) [29]; Rate 62 g/ha) | Plant response rating, Rice (rice (Oryza saliva) [29]; Rate 125 g/ha)
80: Plant response rating, Barnyardgrass [14, 34] | Plant response rating, Flatsedge ([30]; Rate 62 g/ha)
50: Barnyardgrass plant response rating ([27]; Rate 250 g/ha) | Ducksalad plant response rating ([28]; Rate 500 g/ha)

COc1cccc(N2CCC(n3ccc(C(C)(C)C)n3)C2=O)c1 (centres unmarked) [Compound 57]
100: Plant response rating, Barnyardgrass [24] | Plant response rating, Ducksalad [25] | Plant response rating, Flatsedge [31]
90: Plant response rating, Rice (rice (Oryza saliva) [26])

CC(C)c1ccn(C2OCN(c3cccc(OC(F)(F)F)c3)C2=O)n1 (centres unmarked) [Compound 65]
90: Plant response rating, Barnyardgrass [14, 35] | Ducksalad plant response rating ([28]; Rate 500 g/ha) | Rice plant response rating (rice (Oryza saliva) [29]; Rate 250 g/ha) | Rice plant response rating (rice (Oryza saliva) [29]; Rate 500 g/ha)
40: Plant response rating, Surinam grass [1, 33] | Plant response rating, Barnyardgrass ([27]; Rate 62 g/ha) | Plant response rating, Rice (rice (Oryza saliva) [29]; Rate 125 g/ha)
20: Plant response rating, Surinam grass [1, 32] | Plant response rating, Cocklebur [4, 32] | Plant response rating, Surinam grass [13, 34] | Plant response rating, Cocklebur [15, 34] | Plant response rating, Crabgrass [17, 35] | Plant response rating, Foxtail, Giant [18, 35] | Plant response rating, Rice (rice (Oryza saliva) [22]; [34]) | Plant response rating, Velvetleaf [23, 34]
100: Plant response rating, Barnyardgrass [2, 33] | Plant response rating, Crabgrass [6, 33] | Plant response rating, Barnyardgrass [14, 34] | Plant response rating, Lambsquarters [19, 34] | Plant response rating, Lambsquarters [19, 35] | Plant response rating, Pigweed [21, 34] | Plant response rating, Pigweed [21, 35] | Barnyardgrass plant response rating ([27]; Rate 250 g/ha) | Barnyardgrass plant response rating ([27]; Rate 500 g/ha) | Flatsedge plant response rating ([30]; Rate 250 g/ha) | Flatsedge plant response rating ([30]; Rate 500 g/ha) | Plant response rating, Flatsedge ([30]; Rate 125 g/ha)
80: Plant response rating, Barnyardgrass ([27]; Rate 125 g/ha)
60: Plant response rating, Lambsquarters [8, 32]
30: Plant response rating, Cocklebur [4, 33] | Ducksalad plant response rating ([28]; Rate 250 g/ha)
70: Plant response rating, Lambsquarters [8, 33] | Plant response rating, Crabgrass [17, 34] | Plant response rating, Foxtail, Giant [18, 34]
0: Plant response rating, Barnyardgrass [2, 32] | Plant response rating, Blackgrass [3, 32] | Plant response rating, Blackgrass [3, 33] | Plant response rating, Corn (corn (Zea mays) [5]; [32]) | Plant response rating, Corn (corn (Zea mays) [5]; [33]) | Plant response rating, Crabgrass [6, 32] | Plant response rating, Foxtail, Giant [7, 32] | Plant response rating, Foxtail, Giant [7, 33] | Plant response rating, Morningglory [9, 32] | Plant response rating, Morningglory [9, 33] | Plant response rating, Pigweed [10, 32] | Plant response rating, Pigweed [10, 33] | Plant response rating, Velvetleaf [11, 32] | Plant response rating, Velvetleaf [11, 33] | Plant response rating, Wheat [12, 32] | Plant response rating, Wheat [12, 33] | Plant response rating, Wild Oat (wild oat (Avena fatua); [32]) | Plant response rating, Wild Oat (wild oat (Avena fatua); [33]) | Plant response rating, Surinam grass [13, 35] | Plant response rating, Cocklebur [15, 35] | Plant response rating, Corn (corn (Zea mays) [16]; [34]) | Plant response rating, Corn (corn (Zea mays) [16]; [35]) | Plant response rating, Morningglory [20, 34] | Plant response rating, Morningglory [20, 35] | Plant response rating, Rice (rice (Oryza saliva) [22]; [35]) | Plant response rating, Velvetleaf [23, 35] | Plant response rating, Ducksalad ([28]; Rate 62 g/ha) | Plant response rating, Ducksalad ([28]; Rate 125 g/ha) | Plant response rating, Rice (rice (Oryza saliva) [29]; Rate 62 g/ha) | Plant response rating, Flatsedge ([30]; Rate 62 g/ha)

— patent US7138361B2, “Herbicidal heterocycles” (E. I. du Pont de Nemours and Company, priority 2000, dated 2006)
